In ChEMBL document CHEMBL1135798, “Structure-activity relationships of the antimalarial agent artemisinin. 6. The development of predictive in vitro potency models using CoMFA and HQSAR methodologies” (2002):

Test system: Plasmodium falciparum
Test: Antimalarial activity against chloroquine-resistant, mefloquine-sensitive Plasmodium falciparum W2
Format: functional

In order of rising “Log RA” value:
1. C[C@@H]1CC[C@@H]2[C@]34OO[C@](C)(CC[C@@H]13)O[C@H]4OC(=O)[C@]21CO1  -4
2. CCCC(=O)OCC(CC)(CC)OOC(C)(C)C  -4
3. CC(C)C[C@@]12CC[C@H]3[C@H](C)CC[C@H]4CC(=O)O[C@H](O1)[C@]43O2  -4
4. C[C@H]1[C@@H](O)O[C@@H]2O[C@@]3(C)CC[C@H]4[C@H](C)CC[C@@H]1[C@@]24O3  -4
5. CCC(=O)OCC(CC)(CC)OOC(C)(C)C  -4
6. CCCC[C@H]1CO[C@@H]2O[C@@]3(C)CC[C@H]4[C@H](C)CC[C@@H]1[C@@]24O3  -4
7. C[C@@H]1CC[C@H]2[C@@H](C)C(=O)O[C@@H]3O[C@@]4(C)CC[C@@H]1[C@]32O4 [DEOXYARTEMISININ]  -4
8. C[C@@H]1CC[C@H]2CC(=O)O[C@@H]3O[C@H]4CC[C@@H]1[C@@]23OO4  -2.76
9. C[C@@H]1CC[C@H]2[C@@H](C)CO[C@H]3C[C@]4(C)CC[C@@H]1[C@@]32OO4  -2.59
10. CC1(C)C[C@]2(c3ccccc3)CC[C@@](c3ccccc3)(C1)OO2  -2.17
11. C[C@@H]1CC[C@@H]2[C@]34OO[C@](C)(CC[C@@H]13)O[C@H]4OC(=O)[C@@]21CO1  -2.09
12. CCOC1O[C@@H]2O[C@@]3(C)CC[C@H]4[C@H](C)CC[C@H]([C@@]24OO3)[C@@]1(C)O (some centres not stated)  -1.13
13. COC(=O)c1ccccc1S(=O)(=O)OCC[C@@H]1CCC[C@@H]2CC[C@@]3(C)OO[C@]21[C@@H](OC)O3  -0.87
14. CO[C@H]1O[C@@]2(C)CC[C@H]3CCC[C@@H](CCOC(=O)c4ccc(C(=O)O)cc4)[C@]31OO2  -0.81
15. CC(C)C[C@H]1C(=O)O[C@@H]2O[C@@]3(C)CC[C@H]4[C@H](C)CC[C@@H]1[C@@]24OO3  -0.55
16. CCOC1O[C@@H]2O[C@@]3(C)CC[C@H]4[C@H](C)CC[C@H]([C@@]24OO3)[C@]1(C)O (some centres not stated)  -0.44
17. COCC[C@@H]1CCC[C@@H]2CC[C@@]3(C)OO[C@]21[C@@H](OC)O3  -0.39
18. CC(C)CCN1C(=O)C[C@@H]2CC[C@@H](C)[C@@H]3CC[C@@]4(C)OO[C@@]23[C@H]1O4  -0.04
19. C[C@@H]1CC[C@H]2[C@@H](C)C(=O)O[C@@H]3O[C@@]4(C)CC[C@@H]1[C@]32OO4 [ARTEMISININ]  0
20. CC(C)CN1C(=O)C[C@@H]2CC[C@@H](C)[C@@H]3CC[C@@]4(C)OO[C@@]23[C@H]1O4  0.02
21. C[C@H]1[C@@H](O[C@@H](CC(=O)O)c2ccc([N+](=O)[O-])cc2)O[C@@H]2O[C@@]3(C)CC[C@H]4[C@H](C)CC[C@@H]1[C@@]24OO3  0.1
22. C[C@H]1[C@@H](O[C@@H](C)c2ccc(C(=O)O)cc2)O[C@@H]2O[C@@]3(C)CC[C@H]4[C@H](C)CC[C@@H]1[C@@]24OO3  0.21
23. CO[C@H]1O[C@@]2(C)CC[C@H]3CCC[C@@H](CCOCc4ccc(-c5ccccc5)cc4)[C@]31OO2  0.32
24. C[C@H]1[C@@H](O)O[C@@H]2O[C@@]3(C)CC[C@H]4[C@H](C)CC[C@@H]1[C@@]24OO3 [ARTENIMOL]  0.55
25. COC(=O)C[C@H](C)OC1O[C@@H]2O[C@@]3(C)CC[C@H]4[C@H](C)CC[C@@H]([C@H]1C)[C@@]24OO3 (some centres not stated)  0.87
26. CCOC(=O)C[C@H](O[C@H]1O[C@@H]2O[C@@]3(C)CC[C@H]4[C@H](C)CC[C@@H]([C@H]1C)[C@@]24OO3)c1ccccc1  0.9
27. C[C@@H]1CC[C@H]2[C@@H](C)C(=O)N(CC=O)[C@@H]3O[C@@]4(C)CC[C@@H]1[C@@]23OO4  1.47
